# Patent US20220313587A1, “Oral Care Compositions” (Colgate-Palmolive Company, priority 2019, published 2022)
# Key:
# [1] = system: gingival epithelial cells (GEC); experiment: Topical application of vitamin D to gingival epithelial cells, LL-37 expression; format: cell-based
# Cyp24A1 = experiment: Relative gene expression by qPCR (Cyp24A1 probe) in oral tissue model after treatment with toothpaste slurry; format: cell-based, human; details: fresh toothpaste slurry 1:3 in water, 2 minutes treatment, overnight incubation, normalized with GAPDH
# Description: (§1) A toothpaste slurry was prepared by diluting the toothpaste formulation of Table 1 with deionized water in a 1:3 ratio. The slurry was applied on top of tissues that modeled the human oral cavity. After 2 minutes of the treatment, the tissues were rinsed with PBS twice or three times. Medium in wells was replaced with fresh medium and incubated in a cell culture incubator for overnight. Tissues were harvested and processed for RNA isolation and c-DNA preparation. Two probes were used for qPCR; CAP-18 (LL-37) and Cyp24A1. Relative levels of expressions were assessed after normalization with GAPDH (internal control).
# (§2) The data is consistent for both LL-37 and Cyp24A1.
# CAP-18 (LL-37) = experiment: Relative gene expression by qPCR (LL-37 probe) in oral tissue model after treatment with toothpaste slurry; format: cell-based, human; details: fresh toothpaste slurry 1:3 in water, 2 minutes treatment, overnight incubation, normalized with GAPDH
# Description: as §1, §2
SMILES,expression of anti-microbial peptide (LL-37) proteins [1],"Relative Gene Expression after Treatment, Cyp24A1, Mean (Cyp24A1)","Relative Gene Expression after Treatment, LL-37, Mean (CAP-18 (LL-37))"
"C=C1/C(=C\C=C2/CCC[C@]3(C)[C@@H]([C@H](C)CCCC(C)(C)O)CC[C@@H]23)C[C@@H](O)C[C@@H]1O [1,25(OH)2D3, 1,25-dihydroxycholecalciferol]",induces enhanced expression,–,–
"C=C1CC[C@H](O)C/C1=C/C=C1\CCC[C@]2(C)[C@@H]([C@H](C)CCCC(C)C)CC[C@@H]12 [Neat Active, cholecalciferol]",–,4.3,2.0
